Test results: patent US9644010B2, “LY6K epitope peptides for TH1 cells and vaccines containing the same” (ONCOTHERAPY SCIENCE, INC., priority 2012, dated 2017)

System: HLA-A24 Tgm
Assay: In vivo cross-priming assay, ex vivo IFN-gamma ELISPOT
Design: species or system mice
Conditions: 100 micro-g/mouse in IFA
Source text: HLA-A24 Tgm were kindly provided by Dr. F. A. Lemonnier (Jung K O, et al. J Virol; 86: 7616-24). For peptide vaccination, the mice were intradermally injected at the base of the tail with LY6K (172-191) LP (100 micro-g/mouse) solution emulsified in IFA at 7-day intervals. Seven days after the second vaccinations with LY6K (172-191) LP, mice were sacrificed to obtain inguinal lymphocytes and CD8^+ T cells were positively isolated with magnetic microbeads. The number of IFN-gamma producing CD8^+ T cells (3×10^5/well) upon stimulation with LY6K-A24 (177-186) SP or HIV-A24 SP-pulsed C1R-A2402 cells (2×10^4/well) was counted by ELISPOT assay.
HLA-A24 (HHH) transgenic mice (Tgm) were kindly provided by Dr. F. A. Lemonnier (Jung K O, et al. J Virol; 86: 7616-24). Mice were intradermally injected at the base of the tail with LY6K (172-191) LP solution (100 micro-g/mouse) emulsified in incomplete Freund's adjuvant (IFA), third times at 7-day intervals. […] The number of IFN-gamma producing CD8^+ T cells (1×10^5 cells/well) in response to stimulation with LY6K-A24 (177-186) SP-pulsed BM-DCs (2×10^4 cells/well) was counted by ex vivo ELISPOT assay (Inoue M, et al. Immunol Lett 2009; 126:67-72; Harao M, et al. Int J Cancer 2008; 123:2616-25.).

KCCKIRYCNLEGPPINSSVF [LY6K (172-191)]
IFN-gamma production by CD8+ T-cells of immunized mice upon stimulation with LY6K-A24 (177-186) SP-pulsed BM-DCs (HLA-A24 Tgm immunized 3 times): produced IFN-gamma | IFN-gamma production by CD8+ T cells of immunized mice upon re-stimulation with LY6K-A24 (177-186) SP-pulsed C1R-A2402 cells (HLA-A24 Tgm immunized twice, base of tail, 7-day intervals, inguinal LN): produced IFN-gamma specifically
